Measured values: US11674951B2, “Methods for identifying a treatment for rheumatoid arthritis” (The Brigham and Women's Hospital, Inc., priority 2017, dated 2023)
Values joined by “and” are separate entries in the source; they are usually repeats but may differ in a detail not shown here. Equal values may be shown once.

Experiments:
[1] = test system: PTPN22 transcripts in PBMC; assay: Anti-CD3 antibody induced PTPN22 transcript level in PBMC in absence or presence of drug (RT-PCR, drug/no-drug ratio); format: cell-based, human; conditions: anti-CD3 2.5 ug/ml, 24 hours
Method: PBMCs (1 million cells) of these subjects that were collected before the treatment were stimulated in vitro with anti-CD3 antibodies (2.5 ug/ml) in the absence or presence of corresponding drug (etanercept 250 ug/ml, adalimumab 100 ug/ml) for 24 hours. PBMC from subject BW34 was tested separately with etancercept and adalimumab. RNA was harvested from the stimulated cells and the level of PTPN22 transcripts was quantified with RT-PCR.
The PTPN22 level from cells stimulated in the presence of drug was then divided by the level obtained from cells stimulated in the absence of drug. This drug/no-drug ratio calculated from the 9 drug responders ranged from 1.67 to 2.5, whereas the ratio calculated from the 6 drug non-responders ranged from 0.86 to 1.35 (FIG. 4 and Table 1). […]

active RA patients = assay: Clinical response of active RA patients (CPIRA study) by Clinical Disease Activity Index (CDAI); format: in vivo, human; design: key to 2nd visit CDAI / ΔCDAI: CDAI = SJC(28)+TJC(28)+PGA+EGA; PGA/EGA on 1-10, 10 = maximal activity; conditions: for ΔCDAI: 1st visit minus 2nd visit CDAI; for 2nd visit CDAI: 12 weeks after the treatment started; for number of treated subjects who did not respond (CDAI definition) / number of treated subjects who responded (CDAI definition): seven CPIRA subjects treated per drug
Text: The Clinical Disease Activity Index (CDAI) is a useful clinical composite score for patients with rheumatoid arthritis. In some embodiments, it can be determined by the following formula: CDAI=SJC(28)+TJC(28)+PGA+EGA, wherein SJC(28) is Swollen 28-Joint Count (shoulders, elbows, wrists, MCPs, PIPs including thumb IP, knees), TJC(28) is Tender 28-Joint Count (shoulders, elbows, wrists, MCPs, PIPs including thumb IP, knees), PGA is Patient Global disease Activity (patient's self assessment of overall RA disease activity on a scale 1-10 where 10 is maximal activity), and EGA is Evaluator's Global disease Activity (evaluator's assessment of overall RA disease activity on a scale 1-10 where 10 is maximal activity). In some embodiments, a subject with an RA can have a CDAI that is equal to or greater than 5, 10, 15, or 20. In some embodiments, the subject has an active RA, and a subject with an active RA can have a CDAI that is equal to or greater than 10. A CDAI that is equal to or greater than 10 often indicates moderate or severe RA.
Active RA patients were recruited through the Central Pain in Rheumatoid Arthritis (CPIRA) study. The PBMC were collected from active RA patients at the time when they switched or started a new RA treatment and were also collected 12 weeks after the treatment started.
PBMC collected from 14 CPIRA subjects before they started either etanercept or adalimumab were analyzed (Table 1). Seven of the […] subjects were treated by etanercept.
The responsiveness to treatment was determined by the following definition.
CDAI decrease>=12 for those with baseline CDAI>22,
CDAI decrease>=6 for those with baseline CDAI>=10,
CDAI decrease>=1 for those with baseline CDAI<10.

[2] = adalimumab non-responders, one value per subject: BW34, BW83
[3] = adalimumab responders, one value per subject: BW32, BW57, BW85, BW89, BS137
[4] = etanercept non-responders, one value per subject: BW53, BW80, BW116
[5] = etanercept responders, one value per subject: BW39, BW56, BW82, BW110

| Substance | PTPN22 Drug/no-drug ratio ([1]; PBMC of adalimumab non-responders collected before treatment, adalimumab 100 ug/ml, one value per subject: BW34, BW83) | PTPN22 Drug/no-drug ratio ([1]; PBMC of adalimumab responders collected before treatment, adalimumab 100 ug/ml, one value per subject: BW32, BW57, BW85, BW89, BS137) | ΔCDAI (active RA patients; [2]) | 2nd visit CDAI (active RA patients; [2]) | ΔCDAI (active RA patients; [3]) | 2nd visit CDAI (active RA patients; [3]) | number of treated subjects who did not respond (CDAI definition) (active RA patients) | number of treated subjects who responded (CDAI definition) (active RA patients) | PTPN22 Drug/no-drug ratio ([1]; PBMC of etanercept non-responders collected before treatment, etanercept 250 ug/ml, one value per subject: BW53, BW80, BW116, BW34*) | PTPN22 Drug/no-drug ratio ([1]; PBMC of etanercept responders collected before treatment, etanercept 250 ug/ml, one value per subject: BW39, BW56, BW82, BW110) | ΔCDAI (active RA patients; [4]) | 2nd visit CDAI (active RA patients; [4]) | ΔCDAI (active RA patients; [5]) | 2nd visit CDAI (active RA patients; [5]) |
| --- | --- | --- | --- | --- | --- | --- | --- | --- | --- | --- | --- | --- | --- | --- |
| adalimumab | 1.17 and 0.93 | 1.82 and 1.77 and 1.97 and 2.37 and 1.67 | 4.8 and 1 | 24.2 and 13 | 15.2 and 10 and 21 and 23 and 13 | 0 and 9 and 25 and 34 and 18 | two | five | – | – | – | – | – | – |
| etanercept | – | – | – | – | – | – | three | Four | 0.86 and 1.18 and 1.23 and 1.35 | 2.14 and 2.04 and 1.82 and 2.5 | 1.5 and −0.5 and 6 | 25.5 and 21.5 and 23 | 12.5 (2×) and 9 and 23 | 0 and 6.5 and 6 and 12 |
